Laboratory results as given in US9663536B2, “Inhibitors of human immunodeficiency virus replication” (priority 2013, dated 2017).
pEC50: −log10 of the molar value.

What follows are compounds tested on recombinant NL-Rluc virus (assay: Inhibition of HIV replication (NL-Rluc virus in MT-2 cells, luciferase readout)). Conditions: Human immunodeficiency virus 1, MT2, 120 h.
Format: cell-based

`Cc1nc2cc3nn2c(c1[C@H](OC(C)(C)C)C(=O)O)N1CCC(C)(CC1)OC/C=C/COc1ccc(F)cc1Cc1cnn-3c1` [Example 29, (2S)-2-(tert-Butoxy)-2-[(23E)-17-fluoro-4,27-dimethyl-21,26-dioxa-1,5,7,8,10,11-hexaazahexacyclo[25.2.2.1^6,9.1^10,13.0^2,7.0^15,20]tritriaconta-2,4,6(33),8,11,13(32),15(20),16,18,23-decaen-3-yl]acetic acid] and `Cc1nc2cc3nn2c(c1[C@H](OC(C)(C)C)C(=O)O)N1CCC(C)(CC1)OCCCCOc1ccc(F)cc1Cc1cnn-3c1` [Example 30, (2S)-2-(tert-Butoxy)-2-{17-fluoro-4,27-dimethyl-21,26-dioxa-1,5,7,8,10,11-hexaazahexacyclo[25.2.2.1^6,9.1^10,13.0^2,7.0^15,20]tritriaconta-2,4,6(33),8,11,13(32),15(20),16,18-nonaen-3-yl}acetic acid] are the same in pEC50: 8.70 for the first, 8.70 for the second.

First: Cc1nc2cc3nn2c(c1[C@H](OC(C)(C)C)C(=O)O)N1CCC(C)(CC1)OC/C=C/CCOc1ccccc1Cc1cnn-3c1 [Example 31, (2S)-2-(tert-Butoxy)-2-[(24E)-4,28-dimethyl-21,27-dioxa-1,5,7,8,10,11-hexaazahexacyclo[26.2.2.1^6,9.1^10,13.0^2,7.0^15,20]tetratriaconta-2,4,6(34),8,11,13(33),15(20),16,18,24-decaen-3-yl]acetic acid]
Second: Cc1nc2cc3nn2c(c1[C@H](OC(C)(C)C)C(=O)O)N1CCC(C)(CC1)OC/C=C\CCOc1ccccc1Cc1cnn-3c1 [Example 32, (2S)-2-(tert-butoxy)-2-[(24Z)-4,28-dimethyl-21,27-dioxa-1,5,7,8,10,11-hexaazahexacyclo[26.2.2.1^6,9.1^10,13.0^2,7.0^15,20]tetratriaconta-2,4,6(34),8,11,13(33),15(20),16,18,24-decaen-3-yl]acetic acid]
The pEC50 of the first is 0.48 log units higher: 8.70 for the first, 8.22 for the second. The first is the more potent here.

First: Cc1nc2cc3nn2c(c1[C@H](OC(C)(C)C)C(=O)O)N1CCC(C)(CC1)OCCCCCOc1ccccc1Cc1cnn-3c1 [Example 33, (2S)-2-(tert-Butoxy)-2-{4,28-dimethyl-21,27-dioxa-1,5,7,8,10,11-hexaazahexacyclo[26.2.2.1^6,9.1^10,13.0^2,7.1^15,20]tetratriaconta-2,4,6(34),8,11,13 (33), 15 (20), 16,18-nonaen-3-yl}acetic acid]
Second: Cc1nc2cc3nn2c(c1[C@H](OC(C)(C)C)C(=O)O)N1CCC(C)(CCCCCCOc2ccccc2Cc2cnn-3c2)CC1 [Example 36, (2S)-2-(tert-Butoxy)-2-{4,28-dimethyl-21-oxa-1,5,7,8,10,11-hexaazahexacyclo[26.2.2.1^6,9.1^10,13.0^2,7.0^15,20]tetratriaconta-2,4,6(34),8,11,13(33),15(20),16,18-nonaen-3-yl}acetic acid]
The pEC50 of the first is 0.85 log units higher: 8.70 for the first, 7.85 for the second.

Going from `Cc1nc2cc3nn2c(c1[C@H](OC(C)(C)C)C(=O)O)N1CCC(C)(CC/C=C/CCOc2ccccc2Cc2cnn-3c2)CC1` [Example 34, (2S)-2-(tert-Butoxy)-2-[(24E)-4,28-dimethyl-21-oxa-1,5,7,8,10,11-hexaazahexacyclo[26.2.2.1^6,9.1^10,13.0^2,7.0^15,20]tetratriaconta-2,4,6(34),8,11,13(33),15(20),16,18,24-decaen-3-yl]acetic acid] to `Cc1nc2cc3nn2c(c1[C@H](OC(C)(C)C)C(=O)O)N1CCC(C)(CC/C=C\CCOc2ccccc2Cc2cnn-3c2)CC1` [Example 35, (2S)-2-(tert-Butoxy)-2-[(24Z)-4,28-dimethyl-21-oxa-1,5,7,8,10,11-hexaazahexacyclo[26.2.2.1^6,9.1^10,13.0^2,7.0^15,20]tetratriaconta-2,4,6(34),8,11,13(33),15(20),16,18,24-decaen-3-yl]acetic acid], the pEC50 falls from 8.10 to 7.70 (0.40 log units). The first is the more potent here.

Going from `Cc1nc2cc3nn2c(c1[C@H](OC(C)(C)C)C(=O)O)N1CCC(C)(CC/C=C/COc2cccc(c2)Cc2cnn-3c2)CC1` [Example 37] to `Cc1nc2cc3nn2c(c1[C@H](OC(C)(C)C)C(=O)O)N1CCC(C)(CC/C=C\COc2cccc(c2)Cc2cnn-3c2)CC1` [Example 38], the pEC50 falls from 8.52 to 7.66 (0.86 log units). The first is the more potent here.
